Measurements as given in US11489184B2, “Electrolyte including mixture of active material and precursor thereof” (Foundation for Research and Business, Seoul National …, priority 2020, dated 2022).
Converted amounts (≈) assume the structure as drawn.

Legend:
Assay type in all cases: physicochemical
[1] = Solubility analysis of NQ derivatives in KOH by UV-vis spectroscopy; conditions: 1 M KOH solution, aqueous buffer, thermodynamic from solid, stirred for 24 hours, upper part measured by UV-vis, substance alone
Experimental: Excessive amounts of solutions of NQ derivatives were prepared. […] When a further period of time elapsed after stirring was stopped, each solution was divided into two parts (upper and lower parts). 400 microliters (L) of the upper part of the solution was collected and observed by a UV-vis spectrometer. An absorbance was measured to determine concentrations of NQ derivatives.
As a control group, a solution with a known concentration of Lawsone was prepared, and UV-vis spectroscopy of the solution was measured. When absorbance peaks of the control group and a sample of NQ derivatives were compared, concentrations of the samples were calibrated and calculated.

[2] = Analysis of reaction of NQ-S to NQ-OH in KOH (cyclic voltammetry and UV-vis spectroscopy); conditions: 0.01 M in 1 M KOH, CV; for redox potential: NQ-S right after dissolution
Experimental: Initially, 0.01 M NQ-S was dissolved in 1 M KOH and then the NQ-S solution was stayed for few hours. Changes in a chemical structure of the NQ-S solution were observed using cyclic voltammetry and UV-vis spectroscopy.
For the UV-vis spectroscopy, the following three samples were prepared: (i) NQ-S that is just dissolved in KOH (sample 1); (ii) NQ-S dissolved in KOH for 6 hours (sample 2); and (iii) pristine Lawsone (sample 3). In FIG. 2B, a peak observed at 455 nm corresponds to a peak for NQ-OH, and the peak was clearly observed in sample 2.

[3] = Half-cell cyclic voltammetry, kinetic parameters of NQ derivatives; conditions: 0.01 M in 1 M KOH; for redox potential difference (average difference of anodic and cathodic redox potentials, ΔEp,avg): glassy carbon electrode, scan rate 10 to 100 mV·s^−1
Experimental: To observe electrochemical performance of active species, various half-cell tests were performed as follows by using a computer connected potentiostat (SP-240, BioLogic). Ag/AgCl (soaked in 3.0 M NaCl) and Pt wire were used as a reference electrode and a counter electrode, respectively. […] To this end, kinetic parameters of NQ derivatives were measured and compared. To calculate electrochemical properties of NQ derivatives, the CV curves were used. […] A value of D was measured by a Randles-Sevick's equation.

[4] = Analysis of ratio of Lawsone and NQ-S (CV curves); conditions: 0.1 M NQ-S dissolved in 1 M KOH (one third transformed)
Experimental: Samples of Lawsone and NQ-S having different ratios were prepared, and a resistance and a solubility of samples were measured electrochemically (by cyclic voltammetry (CV) and electrochemical impedance spectroscopy (EIS)) and optically (by UV-vis spectroscopy).
[…]; (iv) only Lawsone (0.3 M Lawsone); and (v) only NQ-S (0.3 M NQ-S).

Compound | solubility at 24 h [1] [mM] | redox potential [2] [V vs Ag/AgCl] | diffusion coefficient D ([3]; CV, Randles-Sevick's equation) | redox potential difference (average difference of anodic and cathodic redox potentials, ΔEp,avg) [3] [V] | transformation of NQ-S into NQ-OH in KOH ([2]; staying time 6 hours) | desirable NQ-OH formed by transformation of NQ-S [4] [M]
O=C1C=C(O)C(=O)c2ccccc21 [Lawsone, 2-hydroxy-1,4-naphthoquinone, reference compound] | 420 (≈ 73.1 mg/mL) | −0.55 | 1.75·10^−6 cm^2·s^−1 | 0.077 | – | –
O=C1C=C(S(=O)(=O)[O-])c2ccccc2C1=O.[Na+] [NQ-S, 1,2-naphthoquinone-4-sulfonic acid sodium salt] | – | −0.1 | – | 0.077 | completely transformed into NQ-OH | 0.033
